# Experimental data: PubChem BioAssay (NCI)
#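 Cultured in 96-well plates, cells were exposed to test compound for 48 hours across five concentrations. Here, GI50 denotes the concentration required for 50% inhibition of growth. TGI: concentration producing complete growth inhibition.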
# Assays:
# Experiment in all cases: growth of human tumour cells (NCI), 48 h
# 786-0 renal = system: 786-0 renal
# A498 renal = system: A498 renal
# A549 NSCLC = system: A549 NSCLC
# ACHN renal = system: ACHN renal
# BT-549 breast = system: BT-549 breast
# CAKI-1 renal = system: CAKI-1 renal
# CCRF-CEM leukemia = system: CCRF-CEM leukemia
# COLO 205 colon = system: COLO 205 colon
# DU-145 prostate = system: DU-145 prostate
# EKVX NSCLC = system: EKVX NSCLC
# HCC-2998 colon = system: HCC-2998 colon
# HCT-116 colon = system: HCT-116 colon
# HCT-15 colon = system: HCT-15 colon
# HL-60(TB) leukemia = system: HL-60(TB) leukemia
# HOP-62 NSCLC = system: HOP-62 NSCLC
# HOP-92 NSCLC = system: HOP-92 NSCLC
# HS 578T breast = system: HS 578T breast
# HT29 colon = system: HT29 colon
# IGROV1 ovarian = system: IGROV1 ovarian
# K-562 leukemia = system: K-562 leukemia
# KM12 colon = system: KM12 colon
# LOX IMVI melanoma = system: LOX IMVI melanoma
# M14 melanoma = system: M14 melanoma
# MALME-3M melanoma = system: MALME-3M melanoma
# MCF7 breast = system: MCF7 breast
# MDA-MB-231 breast = system: MDA-MB-231 breast
# MDA-MB-435 = system: MDA-MB-435
# MOLT-4 leukemia = system: MOLT-4 leukemia
# NCI-H226 lung = system: NCI-H226 lung
# NCI-H23 lung = system: NCI-H23 lung
# NCI-H460 lung = system: NCI-H460 lung
# NCI-H522 lung = system: NCI-H522 lung
# NCI/ADR-RES ovarian = system: NCI/ADR-RES ovarian
# OVCAR-3 ovarian = system: OVCAR-3 ovarian
# OVCAR-4 ovarian = system: OVCAR-4 ovarian
# OVCAR-5 ovarian = system: OVCAR-5 ovarian
# OVCAR-8 ovarian = system: OVCAR-8 ovarian
# PC-3 prostate = system: PC-3 prostate
# RPMI-8226 leukemia = system: RPMI-8226 leukemia
# RXF 393 renal = system: RXF 393 renal
# SF-268 CNS = system: SF-268 CNS
# SF-295 CNS = system: SF-295 CNS
# SF-539 CNS = system: SF-539 CNS
# SK-MEL-2 melanoma = system: SK-MEL-2 melanoma
# SK-MEL-28 melanoma = system: SK-MEL-28 melanoma
# SK-MEL-5 melanoma = system: SK-MEL-5 melanoma
# SK-OV-3 ovarian = system: SK-OV-3 ovarian
# SN12C renal = system: SN12C renal
# SNB-19 CNS = system: SNB-19 CNS
# SNB-75 CNS = system: SNB-75 CNS
# SR leukemia = system: SR leukemia
# SW-620 colon = system: SW-620 colon
# T-47D breast = system: T-47D breast
# TK-10 renal = system: TK-10 renal
# U251 CNS = system: U251 CNS
# UACC-257 melanoma = system: UACC-257 melanoma
# UACC-62 melanoma = system: UACC-62 melanoma
# UO-31 renal = system: UO-31 renal
smiles,measurement,setting,value
COc1cc2c(O[C@@H]3OC[C@H](OC(C)=O)[C@H](OC(C)=O)[C@H]3O)c3c(c(-c4ccc5c(c4)OCO5)c2cc1OC)C(=O)OC3,GI50,786-0 renal,2030 nM
same,TGI,786-0 renal,> 7810 nM
same,GI50,A498 renal,1130 nM
same,TGI,A498 renal,> 10000 nM
same,GI50,A549 NSCLC,613 nM
same,TGI,A549 NSCLC,> 10000 nM
same,GI50,ACHN renal,566 nM
same,TGI,ACHN renal,> 10000 nM
same,GI50,BT-549 breast,72.2 nM
same,TGI,BT-549 breast,> 7760 nM
same,GI50,CAKI-1 renal,93.1 nM
same,TGI,CAKI-1 renal,> 10000 nM
same,GI50,CCRF-CEM leukemia,498 nM
same,TGI,CCRF-CEM leukemia,> 10000 nM
same,GI50,COLO 205 colon,76.4 nM
same,TGI,COLO 205 colon,> 10000 nM
same,GI50,DU-145 prostate,754 nM
same,TGI,DU-145 prostate,> 10000 nM
same,GI50,EKVX NSCLC,859 nM
same,TGI,EKVX NSCLC,> 10000 nM
same,GI50,HCC-2998 colon,1560 nM
same,TGI,HCC-2998 colon,> 10000 nM
same,GI50,HCT-116 colon,167 nM
same,TGI,HCT-116 colon,> 10000 nM
same,GI50,HCT-15 colon,725 nM
same,TGI,HCT-15 colon,> 10000 nM
same,GI50,HL-60(TB) leukemia,433 nM
same,TGI,HL-60(TB) leukemia,> 10000 nM
same,GI50,HOP-62 NSCLC,797 nM
same,TGI,HOP-62 NSCLC,> 10000 nM
same,GI50,HOP-92 NSCLC,178 nM
same,TGI,HOP-92 NSCLC,1400 nM
same,GI50,HS 578T breast,3990 nM
same,TGI,HS 578T breast,> 10000 nM
same,GI50,HT29 colon,165 nM
same,TGI,HT29 colon,> 10000 nM
same,GI50,IGROV1 ovarian,400 nM
same,TGI,IGROV1 ovarian,> 10000 nM
same,GI50,K-562 leukemia,436 nM
same,TGI,K-562 leukemia,> 10000 nM
same,GI50,KM12 colon,471 nM
same,TGI,KM12 colon,> 10000 nM
same,GI50,LOX IMVI melanoma,23.3 nM
same,TGI,LOX IMVI melanoma,90.8 nM
same,GI50,M14 melanoma,192 nM
same,TGI,M14 melanoma,649 nM
same,GI50,MALME-3M melanoma,565 nM
same,TGI,MALME-3M melanoma,> 5340 nM
same,GI50,MCF7 breast,684 nM
same,TGI,MCF7 breast,> 10000 nM
same,GI50,MDA-MB-231 breast,75.4 nM
same,TGI,MDA-MB-231 breast,1800 nM
same,GI50,MDA-MB-435,359 nM
same,TGI,MDA-MB-435,3060 nM
same,GI50,MOLT-4 leukemia,437 nM
same,TGI,MOLT-4 leukemia,> 10000 nM
same,GI50,NCI-H226 lung,253 nM
same,TGI,NCI-H226 lung,> 10000 nM
same,GI50,NCI-H23 lung,3240 nM
same,TGI,NCI-H23 lung,> 10000 nM
same,GI50,NCI-H460 lung,255 nM
same,TGI,NCI-H460 lung,> 10000 nM
same,GI50,NCI-H522 lung,252 nM
same,TGI,NCI-H522 lung,> 10000 nM
same,GI50,NCI/ADR-RES ovarian,1830 nM
same,TGI,NCI/ADR-RES ovarian,> 10000 nM
same,GI50,OVCAR-3 ovarian,> 5480 nM
same,TGI,OVCAR-3 ovarian,> 10000 nM
same,GI50,OVCAR-4 ovarian,> 3120 nM
same,TGI,OVCAR-4 ovarian,> 10000 nM
same,GI50,OVCAR-5 ovarian,112 nM
same,TGI,OVCAR-5 ovarian,> 10000 nM
same,GI50,OVCAR-8 ovarian,189 nM
same,TGI,OVCAR-8 ovarian,> 10000 nM
same,GI50,PC-3 prostate,870 nM
same,TGI,PC-3 prostate,> 10000 nM
same,GI50,RPMI-8226 leukemia,64.7 nM
same,TGI,RPMI-8226 leukemia,> 3750 nM
same,GI50,RXF 393 renal,267 nM
same,TGI,RXF 393 renal,> 10000 nM
same,GI50,SF-268 CNS,1470 nM
same,TGI,SF-268 CNS,> 10000 nM
same,GI50,SF-295 CNS,270 nM
same,TGI,SF-295 CNS,923 nM
same,GI50,SF-539 CNS,437 nM
same,TGI,SF-539 CNS,> 10000 nM
same,GI50,SK-MEL-2 melanoma,1050 nM
same,TGI,SK-MEL-2 melanoma,6910 nM
same,GI50,SK-MEL-28 melanoma,264 nM
same,TGI,SK-MEL-28 melanoma,2870 nM
same,GI50,SK-MEL-5 melanoma,57.2 nM
same,TGI,SK-OV-3 ovarian,> 10000 nM
same,GI50,SN12C renal,284 nM
same,TGI,SN12C renal,> 10000 nM
same,GI50,SNB-19 CNS,> 9570 nM
same,TGI,SNB-19 CNS,> 10000 nM
same,GI50,SNB-75 CNS,274 nM
same,TGI,SNB-75 CNS,> 5890 nM
same,GI50,SR leukemia,59 nM
same,TGI,SR leukemia,> 10000 nM
same,GI50,SW-620 colon,491 nM
same,TGI,SW-620 colon,> 10000 nM
same,GI50,T-47D breast,115 nM
same,TGI,T-47D breast,> 10000 nM
same,TGI,TK-10 renal,> 10000 nM
same,GI50,U251 CNS,1160 nM
same,TGI,U251 CNS,> 10000 nM
same,GI50,UACC-257 melanoma,276 nM
same,TGI,UACC-257 melanoma,1170 nM
same,GI50,UACC-62 melanoma,155 nM
same,TGI,UACC-62 melanoma,517 nM
same,GI50,UO-31 renal,1780 nM
same,TGI,UO-31 renal,6740 nM
